The results in this text go back to paper PMC9181982, “Biphenyl Ether Analogs Containing Pomalidomide as Small-Molecule Inhibitors of the Programmed Cell Death-1/Programmed Cell Death-Ligand 1 Interaction” (Molecules, 2022).

The target of assay [1] is T1, PD-1/PD-L1 complex (Homo sapiens, UniProt Q9NZQ7).
T1 construct: purchased Cis-Bio
The assay is described as follows: HTRF (homogeneous time-resolved fluorescence) PD-1/PD-L1 binding assay (Cis-Bio). To be noted: for inhibition at 0.5 µM: 0.5 µM ligand, read-out: HTRF: Percentage of the Dissociated PD-1/PD-L1 Complex, 0.5 µM Ligand Conc.; for inhibition at 0.5 µM / inhibition at 5 µM: 5 nM hPD-L1, 50 nM hPD-1; for inhibition at 5 µM: 5 µM ligand, read-out: HTRF: Percentage of the Dissociated PD-1/PD-L1 Complex, 5 µM Ligand Conc. As for the experimental part:
To validate the activity toward PD-L1 of our compounds, we carried out an HTRF (homogeneous time-resolved fluorescence) experiment at two concentrations of the ligand (5 µM and 0.5 µM) (Table 1).
HTRF was carried out using a certified Cis-Bio assay according to the manufacturer’s guidelines. The experiments were carried out at 5 nM of h-L1 and 50 nM of hPD-1 in the final formulation at the 20 µL final volume in the well. To determine the half maximal inhibitory concentrations (IC50) of the tested compounds, the measurements were carried out on two individual dilution series unless stated otherwise. After mixing all the components according to the Cis-Bio protocol, the plate was left for 2 h incubation at room temperature followed by the TR-FRET measurement on a Tecan Spark 20M. […] The collected data was background-subtracted from the negative control, normalized on the positive control, averaged, and fitted with the normalized Hill’s equation to determine the IC50 value using Mathematica 12 (Princeton, NJ, USA).
On the technique in general: TR-FRET usually uses a lanthanide donor and a delayed reading to cut background.

For assay [2], the system named is PD-1/PD-L1 blockade, Jurkat effector cells / CHO/TCRAct/PD-L1 cells. The assay is described as follows: Immune checkpoint blockade (ICB) assay (Promega): Jurkat ECs co-cultured with CHO/TCRAct/PD-L1 cells, NFAT luciferase readout. To be noted: for Promega Assay (active / not active): cell-based PD-1/PD-L1 blockade bioassay. Type of assay: cell-based, human. How it is done: In order to explore the bioactivity of the synthesized compounds, a well-recognized immune checkpoint blockade (ICB) assay was performed. In the assay, artificial T cells, the Jurkat effector cells (Jurkat ECs), i.e., the Jurkat T cells overexpressing PD-1 and luciferase-coding gene under the control of the TCR-inducible NFAT response element, are contacted with artificial antigen-presenting CHO/TCRAct/PD-L1 cells, as illustrated in [31]. The latter is the CHO cells equipped with the TCR activator molecule, which delivers activation of Jurkat ECs, and also the PD-L1 protein, which provides a negative signal towards the activation of Jurkat ECs. Upon the blockade of the PD-1/PD-L1 interaction, activation of Jurkat ECs is increased, as we have shown before for several classes of therapeutic antibodies and small molecules.
The human PD-L1-expressing CHO-K1 cells overexpressing TCR activator (CHO/TCRAct/PD-L1) cells and Jurkat ECs T cells overexpressing PD-1 and carrying a luciferase reporter gene under the control of the Nuclear Factor of Activated T cells Response Element (NFAT-RE) were obtained from Promega and cultured in an RPMI-1640 medium (Biowest, Nuaillé, France) supplemented with 10% fetal bovine serum (FBS, Biowest, Nuaillé, France) and […] L-glutamine (Biowest, Nuaillé, France). G418 (250 µg/mL, InvivoGen, San Diego, CA, USA) and Hygromycin B Gold (50 µg/mL, InvivoGen, San Diego, CA, USA) were also added to the culture medium as selection antibiotics. CAKI 2, LNCap, PC-3, and MDA-MB-231 cells were purchased from the European Collection of Authenticated Cell Cultures (ECACC) and cultured according to the provided protocol.
For the analysis of biological activity of the analyzed compounds, an immune checkpoint blockade (ICB) assay was performed. For this, the culture of Jurkat effector cells (Jurkat-ECs) and […] was carried out. The assay was performed according to the protocol described in our previous works. All the experiments were performed three times as independent experiments.
Figure 2 Bioactivity of the indicated compounds. (A,B) The activity was monitored with a cell-based immune checkpoint blockade (ICB) assay. Jurkat ECs were contacted with pre-seeded CHO/TCRAct/PD-L1 cells in the presence of the indicated concentrations of the compounds (A) or durvalumab (B) as a positive control. The cells were co-cultured for 6 h and the luminescence signal was measured following the addition of the Bio-Glo substrate. The graphs show fold induction calculated versus either DMSO-treated (for small molecules) or untreated (for durvalumab) control (ctrl) cells. The results are mean ± SD from three independent experiments. […] (C) Analysis of the expression of PD-L1 in four human cancer cell lines compared to PD-L1-overexpressing CHO/TCRAct/PD-L1 cells. (D) Analysis of the expression of PD-L1 in MDA-MB-231 cells treated with either 4 or 5 compounds for 6 or 24 h.

T1 sequence (Q9NZQ7 19-238 limits assumed, one chain of several): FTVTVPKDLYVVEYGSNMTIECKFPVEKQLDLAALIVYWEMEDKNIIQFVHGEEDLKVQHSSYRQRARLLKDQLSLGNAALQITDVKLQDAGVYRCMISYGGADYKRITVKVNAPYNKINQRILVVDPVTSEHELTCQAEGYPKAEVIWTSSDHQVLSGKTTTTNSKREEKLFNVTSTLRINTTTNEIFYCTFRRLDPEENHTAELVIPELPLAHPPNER

Consider `Cc1c(COc2cc(OCc3cccc(C#N)c3)c(CN3C[C@H](O)C[C@@H]3C(=O)NCC3CCN(CC(=O)Nc4cccc5c4C(=O)N(C4CCC(=O)NC4=O)C5=O)CC3)cc2Cl)cccc1-c1ccc2c(c1)OCCO2` (stereo partly drawn) [compound 1, (2R,4R)-1-(5-chloro-2-((3-cyanobenzyl)oxy)-4-((3-(2,3-dihydrobenzo[b][1,4]dioxin-6-yl)-2-methylbenzyl)oxy)benzyl)-N-((1-(2-((2-(2,6-dioxopiperidin-3-yl)-1,3-dioxoisoindolin-4-yl)amino)-2-oxoethyl)piperidin-4-yl)methyl)-4-hydroxypyrrolidine-2-carboxamide], for which, in assay [1], the inhibition at 0.5 µM was 23.7% and the inhibition at 5 µM came out at 68.3%. Further, the “Promega Assay (active / not active)” value in assay [2] is “Not active”.

For `Cc1c(COc2cc(OCc3cccc(C#N)c3)c(CN3C[C@H](O)C[C@@H]3C(=O)NCCCNc3cccc4c3C(=O)N(C3CCC(=O)NC3=O)C4=O)cc2Cl)cccc1-c1ccc2c(c1)OCCO2` (stereo partly drawn) [compound 2, (2R,4R)-1-(5-chloro-2-((3-cyanobenzyl)oxy)-4-((3-(2,3-dihydrobenzo[b][1,4]dioxin-6-yl)-2-methylbenzyl)oxy)benzyl)-N-(3-((2-(2,6-dioxopiperidin-3-yl)-1,3-dioxoisoindolin-4yl)amino)propyl)-4-hydroxypyrrolidine-2-carboxamide], in assay [1], the inhibition at 0.5 µM stood at 3.9% and the inhibition at 5 µM is 71.7%. Also, in assay [2], the “Promega Assay (active / not active)” value is listed as “Not active”.

`Cc1c(COc2cc(OCc3cccc(C#N)c3)c(CNCC3CCN(CC(=O)Nc4cccc5c4C(=O)N(C4CCC(=O)NC4=O)C5=O)CC3)cc2Cl)cccc1-c1ccc2c(c1)OCCO2` (centres unmarked) [compound 3, 2-(4-(((5-chloro-2-((3-cyanobenzyl)oxy)-4-((3-(2,3-dihydrobenzo[b][1,4]dioxin-6-yl)-2-methylbenzyl)oxy)benzyl)amino)methyl)piperidin-1-yl)-N-(2-(2,6-dioxopiperidin-3-yl)-1,3-dioxoisoindolin-4-yl)acetamide]: in assay [1], the inhibition at 0.5 µM was determined as 77.8% and the inhibition at 5 µM is 97.1%. In assay [1] (six ligand concentrations, two dilution series), this compound registered an IC50 of 60 ± 2 nM. In addition, in assay [2], the “Promega Assay (active / not active)” value is “Not active”.

Regarding `COc1nc(OCc2cccc(-c3ccccc3)c2C)ccc1C(NCCCNc1cccc2c1C(=O)N(C1CCC(=O)NC1=O)C2=O)c1nnnn1C(C)(C)C` (centres unmarked) [compound 7, 4-((3-(((1-(tert-butyl)-1H-tetrazol-5-yl)(2-methoxy-6-((2-methyl-[1,1′-biphenyl]-3-yl)methoxy)pyridin-3-yl)methyl)amino)propyl)amino)-2-(2,6-dioxopiperidin-3-yl)isoindoline-1,3-dione], in assay [1], the inhibition at 0.5 µM was 0% and the inhibition at 5 µM is 35.2%. In addition, in assay [2], the “Promega Assay (active / not active)” value was “Not active”.

With `COc1cc(-c2cccc(-c3ccc4c(c3)OCCO4)c2Cl)ccc1COC(=O)CCC(=O)N1CCN(c2cccc3c2C(=O)N(C2CCC(=O)NC2=O)C3=O)CC1` (centres unmarked) [compound 10, (3′-(benzo-1,4-dioxan-6-yl)-2′-chloro-3-methoxy-[1,1′-biphenyl]-4-yl)methyl 4-(4-(2-(2,6-dioxopiperidin-3-yl)-1,3-dioxoisoindolin-4-yl)piperazin-1-yl)-4-oxobutanoate], in assay [1], the inhibition at 0.5 µM came out at 29.4% and the inhibition at 5 µM was determined as 60.6%. Besides, in assay [2], the “Promega Assay (active / not active)” value is listed as “Not active”.

In the case of `COc1cc(-c2cccc(-c3ccc4c(c3)OCCO4)c2Cl)ccc1COC(=O)CCCC(=O)N1CCN(c2cccc3c2C(=O)N(C2CCC(=O)NC2=O)C3=O)CC1` (centres unmarked) [compound 11], in assay [1], the inhibition at 0.5 µM worked out at 26.3% and the inhibition at 5 µM came to 40%. In assay [2], the “Promega Assay (active / not active)” value is reported as “Not active”.

With durvalumab, in assay [2] (6 h co-culture, fold induction vs control), the “Activation of Jurkat ECs in the ICB assay” value was “increase the activation of Jurkat ECs”.

By IC50 is commonly meant the concentration at which inhibition is half-maximal.
